Assay results as given in patent publication US11066379B2 (THE TEXAS A&M UNIVERSITY SYSTEM, priority 2018, dated 2021).

Experiments:
[1] = molecular target: T1, active human CypA protein (Homo sapiens, UniProt P62937); test: Binding to immobilized CypA by surface plasmon resonance (SPR); conditions: for fold increase in KD toward CypA compared to gracilin A / affinity for CypA (association curves, KD): SPR; for affinity for CypA (association curves, KD): various concentrations; for affinity for CypA (association curves, KD) / immunosuppressive activity (SAR profile, FIG. 2): in words; for immunosuppressive activity (SAR profile, FIG. 2): CypA binding / IL-2 inhibition
T1 construct: Active human CypA full-length protein was from Abcam; purchased Abcam
Method: Sensor surface activation and ligand immobilization were performed by using HBS-EP as running buffer at a flow rate of 5 μL/min and 25° C. CM5 sensor chips were used as surface where Cyp A or D was immobilized as ligand. The CM5 chip is a glass slide coated with a thin layer of gold with a matrix of carboxymethylated dextran covalently attached. The CM5 chip was activated using an amine coupling kit. […] After activation, the ligand, 100 μg/mL of active human CypA protein dissolved in sodium acetate 10 mM at pH 4.5 was added to be immobilized over a CM5 sensor chip. Finally ethanolamine-HCl was injected to deactivate the remaining active esters and to avoid non-specific binding. […] Once analytes were tested and interaction was observed, individual binding curves were analyzed by determining the kinetic constants of analytes-CypA binding, namely, the observed rate constant (Kobs), the association rate constant (Kass), the dissociation rate constant (Kdiss), and the kinetic equilibrium dissociation constant (KD). At equilibrium, by definition, […]. The pseudo-first order association rate constants Kobs (s^-1) were determined for each compound concentration by using the 1:1 Langmuir association model of BiaEvaluation software (BiaCore, Uppsala, Sweden). Then a representation of Kobs against the corresponding concentration of each compound was done. […] From the equation of these representations, Kass, M^-1 s^-1, gradient of the plot, and […]^-1, intercept of the plot was obtained. Within these two values, the kinetic equilibrium dissociation constant KD for each analyte-CypA binding was obtained. The duration of the sample injection was 2 min at 10 μL/min flow rate. Next, dissociation of bound molecules in HBS-EP buffer flow was studied. The bound drugs were removed from the chip surface before the next injection by adding 1 M Glycine-HCl at pH 2.5 for 1 min. The association phase was used to quantify the compound-CypA or D interactions. All experiments were performed four times.

human T lymphocytes = test: Viability of human T lymphocytes (MTT assay, 48 h); format: cell-based; conditions: for cell toxicity to T-cells: 0.1 μM, in words
Description: (§1) The MTT (3-[4,5-dimethylthiazol-2-yl]-2,5-diphenyltetrazoliumbromide) assay was used to determine the cytotoxicity of gracilin derivatives in T lymphocytes (Burton, J. D. Methods Mol. Med., 2005, 110, 69-78) and SH-SY5Y cells and the protective effect of these compounds against H2O2 insult in neuroblastoma cells as previously described (Leiros, M., Alonso, E., Sanchez, J. A., Rateb, M. E., Ebel, R., Houssen, W. E., Jaspars, M., Alfonso, A. and Botana, L. M. ACS Chem. Neurosci., 2014, S, 71-80). Human T lymphocytes were cultured in 24 well plates at the concentration of 2.5×10^6 cells/mL and exposed to different compound concentrations (0.01, 0.1, 1 and 10 μM) added to the culture medium. Human T cells were maintained in the presence of the pure compound at 37° C. in humidified 5% CO2/95% air atmosphere for 48 h.
Saponin was used as cellular death control and its absorbance was subtracted from the other data. After the incubation period with compounds, assay was performed. First cells were centrifuged (1500 rpm, 5 min, 4° C.). The pellets were resuspended in saline solution with MTT (250 μg/mL) and then incubated at 37° C. during 30 min. After washing off excess MTT twice with saline solution, cells were disaggregated with H2O and sonicated for 1 min and the absorbance of the colored formazan salt was measured at 595 nm in a spectrophotometer plate reader. All experiments were performed three times.

SH-SY5Y cells [2] = test: Cellular toxicity in SH-SY5Y cells (MTT, 24 h); format: cell-based; conditions: SH-SY5Y, 24 h incubation; read-out: IC50 (cellular toxicity)
Description: as §1
(§2) SH-SY5Y cells were seeded in 96-well plates at a density of 2.5×10^5 cells/mL and allowed to adhere for 24 h. At first, cells were treated only with compounds at concentrations ranging from 10-0.01 μM for 24 h to determine their possible cytotoxic effects. Experiments were carried out three times. For neuroprotective experiments, cells were treated with compounds at non-toxic concentrations (1 μM→1 nM) and 150 μM H2O2 for 6 h. Briefly, cells were washed three times with saline solution and 200 μL of MTT (500 μg/mL) dissolved in saline buffer were added to each well. Following 1 h of incubation at 37° C., the cells were disaggregated with sodium dodecyl sulphate at 5%.
Absorbance of formazan crystals was measured at 595 nm with a spectrophotometer plate reader. Saponin was used as death control and its absorbance was subtracted from the other data. All experiments were performed four times.

SH-SY5Y cells [3] = test: Neuroprotection against H2O2 toxicity, cell viability by MTT; format: cell-based, human; conditions: 150 μM H2O2 co-treatment 6 h; 0.01, 0.1 and 1 μM
Method: as §2, with “5%. Absorbance of formazan crystals was measured at 595 nm with a spectrophotometer plate reader. Saponin was used as death control and its absorbance was subtracted from the other data. All experiments were performed four times.” for “5%.”

SH-SY5Y cells [4] = test: Intracellular ROS levels (carboxy-H2DCFDA) after H2O2; format: cell-based, human; conditions: 150 μM H2O2 co-treatment 6 h
Method: Intracellular levels of reactive oxygen species (ROS) were determined with carboxy-H2DCFDA (5-(and-6)-carboxy-2′,7′-dichlorodihydrofluorescein diacetate). This dye diffuses through the cellular membrane and is converted by cellular esterases to carboxy-H2DCFH (non-fluorescent). When carboxy-H2DCFH is oxidized by ROS, it becomes fluorescent (Halliwell, B. and Whiteman, M. Br. J. Pharmacol., 2004, 142, 231-255). Cells were seeded at a density of 2.5×10^5 cells/mL in 96-well plates and allowed to attach for 24 h. Following treatment with compounds at various concentrations (1 μM→1 nM) and 150 μM H2O2 for 6 h, SH-SY5Y cells were washed twice with serum-free culture medium. Then, carboxy-H2DCFDA 20 μM dissolved in serum-free culture medium was added to each well and the cells were incubated for 1 h at 37° C. After this incubation, the medium with the fluorescent dye was replaced with PBS and the plate was incubated for 30 min at 37° C. Fluorescence was read at 527 nm, with an excitation wavelength of 495 nm. All experiments were performed four times.

[5] = system: Interleukin-2 (IL-2) production in human T lymphocytes; test: Interleukin-2 release in Con A-stimulated human T lymphocytes (ELISA); format: cell-based
Method: Then, cells were stimulated with Concanavalin A (Con A) at 50 μg/mL for 48 h to induce IL-2 release. The amount of IL-2 released to the culture medium was evaluated using Human IL-2 ELISA kit. Experiments were carried out four times.

T1 sequence (P62937 whole entry): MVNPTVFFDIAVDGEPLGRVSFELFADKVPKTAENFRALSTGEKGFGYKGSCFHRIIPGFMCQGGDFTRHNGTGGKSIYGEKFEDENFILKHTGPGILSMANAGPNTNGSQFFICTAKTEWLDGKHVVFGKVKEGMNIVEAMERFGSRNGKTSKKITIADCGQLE

(1S,3R,3aS,7aR)-5-((S)-1,3,3-trimethylcyclohexyl)-1,3,3a,4,7,7a-hexahydroisoben-zofuran-1,3-diyl diacetate [Compound 23a]
fold increase in KD toward CypA compared to gracilin A [1]: ~1000 fold
decrease in cell viability (human T lymphocytes): ~10%
IC50 (SH-SY5Y cells [2]): 1400 nM
protection of cell viability against H2O2 insult (SH-SY5Y cells [3]): protected cells against H2O2 insult at almost all concentrations
ROS levels (SH-SY5Y cells [4]): diminishing ROS at two or three concentrations

CC(=O)OC1CCC(OC(C)=O)O1 (mixture of isomers) [(±)-9, cis- and trans-2,5-tetrahydrofuran-2,5-diyl diacetate]
affinity for CypA (association curves, KD) [1]: no affinity
Inhibition of IL-2 production ([5]; in words): did not inhibit IL-2 production
cell toxicity to T-cells (human T lymphocytes): did not show signs of cell toxicity

CC(=O)O[C@@H]1OC[C@H]2CC(=O)CC[C@H]21 [Compound 24, (1S,3aS,7aR)-5-oxooctahydroisobenzofuran-1-yl acetate]
immunosuppressive activity (SAR profile, FIG. 2) [1]: inactive

CC1(C2=C[C@@H]3COC(=O)[C@@H]3CC2)CCCCC1 [Compound 26, (3aS,7aR)-5-(1-methylcyclohexyl)-3a,6,7,7a-tetrahydroisobenzofuran-1(3H)-one]
immunosuppressive activity (SAR profile, FIG. 2) [1]: inactive

CC(=O)O[C@H]1O[C@@H](OC(C)=O)[C@@H]2CCC(=O)C[C@H]12 [Compound 17, (1S,3R,3aS,7aR)-5-oxooctahydroisobenzofuran-1,3-diyl diacetate]
affinity for CypA (association curves, KD) [1]: no affinity
Inhibition of IL-2 production ([5]; in words): did not inhibit IL-2 production
cell toxicity to T-cells (human T lymphocytes): did not show signs of cell toxicity

(0R,3S,3aR,7aS)-6-((R)-1,3,3-trimethyl-cyclohexyl)-1,3,3a,4,5,7a-hexahydroisobenzofuran-1,3-diyl diacetate [Compound 23d]
fold increase in KD toward CypA compared to gracilin A [1]: ~1000 fold
Inhibition of IL-2 production ([5]; 2 h pre-treatment at non-toxic concentration, Con A 50 μg/mL 48 h): 46%
impact on T-cell viability (human T lymphocytes): no impact on cell viability
IC50 (SH-SY5Y cells [2]): 1400 nM

CC(=O)OC1OC(OC(C)=O)[C@@H]2CCC=C[C@H]12 (stereo partly drawn) [Compound 18, (3aR,7aS)-1,3,3a,4,5,7a-hexahydroisobenzofuran-1,3-diyl diacetate]
affinity for CypA (association curves, KD) [1]: no affinity
Inhibition of IL-2 production ([5]; in words): did not inhibit IL-2 production
cell toxicity to T-cells (human T lymphocytes): did not show signs of cell toxicity
